A short description of the assay: Binding of P-EGFs to TiO2 plate, anti-EGF antibody chemiluminescence detection. To be noted: about 2.0 ng, 10 μl in TBS pH 7.5; washed 3 times with TBS-T; anti-human EGF antibody and HRP secondary. As to the method:
Subsequently, in accordance with a scheme in the left in FIG. 4-2, various P-EGF solutions (about 2.0 ng, 10 μl in TBS, pH 7.5) were added on a TiO2 plate (a plate produced by vapor deposition of titanium on the surface of a glass plate with a diameter of 15 mm and a thickness of 0.6 mm (manufactured by Matsunami Glass Ind., Ltd.) (the vapor deposition step was requested to Osaka Vacuum Industrial Co., Ltd.) was used); and a washing operation (TBS-T buffer, pH 7.5) was repeated 3 times. And, after blocking with 0.1% BSA solution, an anti-human EGF antibody was added as a primary antibody. Furthermore, after the washing operation (TBS-T buffer, pH 7.5) was repeated 3 times, an anti-mouse IgG antibody HRP conjugate was added as a secondary antibody. At the end, using a luminescent phenomenon by a reaction between a chemiluminescence reagent and HRP as an index, the presence of protein immobilized on the TiO2 plate was detected. […]
First, in accordance with a scheme in the left in FIG. 7-1, various P-EGF solutions (about 2.0 ng, 10 μl in TBS, pH 7.5) were added on a TiO2 plate and a washing operation (TBS-T buffer, pH 7.5) was repeated 3 times. […] At the end, using a luminescent phenomenon by a reaction between a chemiluminescence reagent and HRP as an index, the presence of protein immobilized on the TiO2 plate was detected.

We go through one substance from patent US8697655B2, “Method of selecting polypeptide sequence, and metal oxide or silicon-containing compound binding peptide and use thereof” (Riken, priority 2010, dated 2014).

Consider “EGF: EGF to which a peptide was not fused”, for which the “TiO2 plate binding (luminescent phenomenon of protein immobilized on the plate)” value was “did not exhibit TiO2 binding”.
